# Source: article PMC3158555, “Cofactor-mediated conformational control in the bifunctional kinase/RNase Ire1” (BMC Biology, 2011)
# Target: T1, Ire1KR32 (cytosolic kinase/RNase portion of Ire1) (Saccharomyces cerevisiae, UniProt P32361)
# T1 construct: cytoplasmic kinase + RNase domains with N-terminal 32-aa extension from the linker to the transmembrane segment; GST fusion (pGEX-6P-2) in E. coli, GST cleaved by PreScission; autophosphorylated (~20 phosphates); homo-oligomerizes
# T1 sequence (P32361 641-1115): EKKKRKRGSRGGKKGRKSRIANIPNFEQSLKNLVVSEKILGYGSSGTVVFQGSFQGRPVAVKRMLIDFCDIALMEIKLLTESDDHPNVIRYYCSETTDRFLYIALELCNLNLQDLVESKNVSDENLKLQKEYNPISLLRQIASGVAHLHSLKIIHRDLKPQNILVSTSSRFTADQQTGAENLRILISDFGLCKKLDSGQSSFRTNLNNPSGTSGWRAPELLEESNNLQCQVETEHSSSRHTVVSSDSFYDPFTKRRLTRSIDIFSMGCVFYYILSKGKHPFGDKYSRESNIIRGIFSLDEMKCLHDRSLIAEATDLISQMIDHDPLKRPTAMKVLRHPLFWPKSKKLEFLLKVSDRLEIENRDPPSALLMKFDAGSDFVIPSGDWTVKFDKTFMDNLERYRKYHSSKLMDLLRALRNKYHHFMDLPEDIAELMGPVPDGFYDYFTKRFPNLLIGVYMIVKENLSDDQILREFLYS
# Assay: inhibition of ADP-stimulated RNase cleavage of […]-RNA hairpin
# Assay type: biochemical
# Settings: competition with 0.2 mM ADP, 3 µM Ire1KR32, 2 mM Mg2+, pH 7.4, 30 °C; kinase ATP pocket; paper prints mmol for mM
row,SMILES,Ki
1,Nc1ncnc2c1ncn2[C@@H]1O[C@H](COP(=O)(O)OP(=O)(O)S)[C@@H](O)[C@H]1O (some centres unmarked) [ADPβS],0.2 ± 0.07 mM
2,Nc1ncnc2c1ncn2[C@@H]1O[C@H](COP(=O)(O)OP(=O)(O)OP(=O)(O)O)[C@@H](O)[C@H]1O [ATP],0.1 ± 0.04 mM

# Target: T1, Ire1KR32 (cytosolic kinase/RNase portion of Ire1)
# Assay: RNase activation, hyperbolic fit of kobs versus cofactor ([…]P-RNA hairpin)
# Assay type: biochemical
# Settings: 3 µM Ire1KR32, 2 mM Mg2+, pH 7.4, 30 °C; allosteric activator in kinase ATP pocket
row,SMILES,Kcof (apparent cofactor binding constant)
1,Nc1ncnc2c1ncn2[C@@H]1O[C@H](COP(=O)(O)OP(=O)(O)OP(=O)(O)O)[C@@H](O)[C@H]1O [ATP],the apparent affinity for AMP was tenfold lower than that observed for ATP
2,CCN(CC)CCNC(=O)c1c(C)[nH]c(/C=C2\C(=O)Nc3ccc(F)cc32)c1C [sunitinib],activated Ire1KR32 to a similar extent as AMP and ATP
3,Nc1ncnc2c1ncn2[C@@H]1O[C@H](COP(=O)(O)OP(=O)(O)O)[C@@H](O)[C@H]1O [ADP],ADP bound with an apparent affinity similar to that of ATP
4,c1cc(Nc2cc(C3CC3)[nH]n2)nc(Nc2ccc3[nH]cnc3c2)n1 [APY29],APY24 and APY29 activated Ire1 as well as or better than ADP
5,Nc1ncnc2c1ncn2[C@@H]1O[C@H](COP(=O)(O)OP(=O)(O)OP(O)(O)=S)[C@@H](O)[C@H]1O [ATPγS],ATPγS bound to Ire1 slightly more weakly than ATP
6,Nc1ncnc2c1ncn2[C@@H]1O[C@H](COP(=O)(O)O)[C@@H](O)[C@H]1O [AMP],the apparent affinity for AMP was tenfold lower than that observed for ATP
